Where only a bound is given, the exact number is not on record here.

For one data set, the system named is RAS. The arrangement: method as in earlier work. Conditions: RAS antagonist, ref Reif et al., 1999, Katzav et al., 2001, Clarke et al., 2003, 2004, Kafri et al., 2005, Nevo et al., 2011, Rokni et al., 2022; cited from earlier work.
Data set [1] is described as follows: Cytotoxic assay in cardiac fibroblasts (crystal violet, 96 h). It counts as cell-based. Conditions: human, human ventricular cardiac fibroblasts (NHCF-V), NHCF-V cell line, read-out: IC50 (cytotoxicity, CF viability). The procedure:
SB202190, Tacrolimus, and Sirolimus were freshly and individually prepared in DMSO for each individual experiment. Cardiac fibroblasts were seeded individually in 96-well plates (5,000 cells per well). The treatment effectiveness was assayed after applying reducing concentrations in a 1:2 fixed ratio to cycling cells in the exponential phase. All treatments were assessed within reducing doses of SB202190, Tacrolimus, or Sirolimus in monotherapy or combination in fixed proportions a day after the seeding. The proliferation viability was determined by crystal violet after 96 h. Cytotoxicity profiles were measured by absorbance at 595 nm using a microplate reader; then, IC50 values were estimated using GraphPad Prism 7 software.

For data set [2], the system named is iPSC-derived human heart organoids (hHOs). Description: Cardiotoxicity MTT assay in iPSC-derived human heart organoids (96 h). It counts as cell-based. Conditions: hHOs day 15, MTT, read-out: IC50 (hHO cellular viability). The procedure:
SB202190, Tacrolimus, and Sirolimus were prepared alone or in combinations mixed in DMSO for each experiment. hHOs were differentiated and seeded separately in low-binding 96-w plates. The effectiveness of the treatment was measured after the usage of decreasing concentrations in a 1:2 ratio to day 15 of developing heart organoids. All treatments were applied by reducing dosages of SB202190, Tacrolimus, or Sirolimus in monotherapy or combination. The proliferation capacity as a functional assay was determined using an MTT assay after 96 h (4 days). Cytotoxicity profiling was drafted by obtaining absorbance metrics at 595 nm using a particular microplate reader; then, IC50 values were calculated using GraphPad Prism 7.
(In general: Formazan colour is commonly taken as a measure of viable cells.)

The subject of a further data set is hHO spontaneous beating. Description: Organoid beating evaluation (beating count vs untreated organoid). To be noted: hHOs, 96 h. It counts as cell-based, human. An excerpt:
For organoid beating evaluation, we measured the beating count at 10 s intervals and then compared it to the beating count of the untreated organoid for each case in biological triplicates.

For data set [3], the system named is COL1A1. Description: COL1A1 expression in NHCF-V cardiac fibroblasts (western blot, immunocytochemistry). It counts as cell-based, human. To be noted: for COL1A1 protein expression: 5 ng/ml TGF-β1 for 24 h, SB202190 10 μM, TAC 10 μM, Sirolimus 200 nM. (A western blot detects proteins with antibodies after separation by electrophoresis.)
Procedure: Cells were fixed by 4% PFA treatment for 15 min and stored in PBS at 4°C. Blocking was performed for 30–45 min in a blocking buffer containing 1% BSA, 0.5% Triton X-100 and 0.1 M glycine in PBS. After washing three times with PBS, primary antibody anti-Collagen I (1:200, ab34710, Abcam) was added to the blocking buffer (w/o glycine) and incubated overnight at 4°C. The next day, cells were washed three times with PBS, and secondary antibody donkey anti-rabbit Alexa Fluro 594 (1:1000, A21207, Invitrogen) was added in 1% BSA-PBS for 2 h at RT. After washing three times with PBS, 1:10,000 Hoechst 33342 was added for nuclear counterstaining. Images were taken with Keyence.
After 3 days of treatment on unstimulated CFs, we treated cells with 5 ng/ml of TGF-β1 in combination with the inhibitors for another 24 h to recapitulate pathological conditions of heart disease and induced a forced expression of ECMs, with a particular focus on COL1A1 as a major component of the Collagen type I.
For data set [4], the system named is COL1A1. The experiment in a line: COL1A1 expression in TGF-β1 stimulated hHOs (western blot, immunocytochemistry). It counts as cell-based, human. Conditions: 5 ng/ml TGF-β1 for 24 h, SB202190 10 μM, TAC 10 μM, Sirolimus 200 nM. The procedure:
Immunofluorescence staining of hHOs was conducted as previously described. hHOs were fixed by 4% PFA solution for 45–60 min at room temperature and incubated in blocking/permeabilization solution containing 10% normal donkey serum (Abcam), 0.5% Triton X-100 (nacalai tesque) and 0.5% BSA (nacalai tesque) at 4°C overnight. Subsequently, hHOs were stained with primary and secondary antibodies in PBS containing 1% normal donkey serum, 0.5% Triton X-100 and 0.5% BSA, respectively. Nuclei were stained with Hoechst 33342 (1:1000) before mounting. A confocal laser scanning microscope (Olympus FV3000) was used for fluorescent observation. Primary antibodies used are listed as follows: anti-Vimentin (1:200, ab11256, Abcam); anti-Collagen I (1:200, ab34710, Abcam); anti-WT1 (1:200, ab89901, Abcam); anti-ZO-1 (1:200, 33-9100, Invitrogen); anti-CD31/PECAM1 (1:50, ab28364, Abcam); anti-Cardiac Troponin T (1:200, ab8295, Abcam); anti-NFAT2 (1:200, ab25916, Abcam); anti-CD90/THY1 (1:200, ab133350, Abcam). […]
Cells were lysed in M-PER Mammalian Protein Extraction Reagent (78501, Thermo Scientific) buffer, and hHOs were lysed in T-PER Tissue Protein Extraction Reagent (78510, Thermo Scientific). The amount of protein was determined by Bradford assay using BSA as a standard. […]

The test system of data set [5] is mTORC1 downstream targets p4E-BP1 and pS6K. The experiment in a line: Western blot for pathway targets in NHCF-V. It counts as cell-based, human. Conditions: 200 nM. The procedure: (§1) Cells were lysed in M-PER Mammalian Protein Extraction Reagent (78501, Thermo Scientific) buffer, and hHOs were lysed in T-PER Tissue Protein Extraction Reagent (78510, Thermo Scientific). The amount of protein was determined by Bradford assay using BSA as a standard. The primary antibodies were purchased from commercial sources as follows: anti-phospho-S6 Ribosomal Protein (1:1000, 5364, CST); anti-phospho-4E-BP1 (1:1000, 2855, CST); anti-4E-BP1 (1:1000, 9644, CST); anti-phospho-p38 (1:1000, 4631, CST); anti-p38 (1:1000, 9212, CST); anti-phospho-AKT (1:1000, 9271, CST); anti-Collagen I (1:1000, ab34710, abcam); anti-IL-11 (1:1000, ab76589, abcam); anti-β-actin (1:1000, A5441, Sigma). The secondary antibodies used are as follows: goat anti-rabbit IgG (HRP) (1:5000, sc-2054, Santa cruz), and anti-mouse IgG (HRP) (1:5000, 7076, CST).

A further data set has as its system IL-11 and phospho-p38. The experiment in a line: Western blot for IL-11 and phospho-p38 in TGF-β1 stimulated hHOs. It counts as cell-based, human. The procedure: as §1

In the case of `CC(C)=CCC/C(C)=C/CC/C(C)=C/CSc1ccccc1C(=O)O` [FTS, Farnesythiosalicylic acid], the “inflammation and fibrosis in animal models” value in the data set with RAS is “decreasing inflammation and fibrosis in animal models”.
Take `Oc1ccc(-c2nc(-c3ccncc3)c(-c3ccc(F)cc3)[nH]2)cc1` [SB202190]: the IC50 at 96 h in data set [1] came to 13.9 µM. Besides, the IC50 in data set [2] worked out at 72.4 µM. Besides, the “safe dosages preserving average beating rates compared to untreated organoids (from ... downwards)” value in the data set with hHO spontaneous beating is at most 100 µM. Further, the COL1A1 protein expression entry in the data set with COL1A1 [3] is recorded as “independent effect in reducing COL1A1 protein expression”. The “TGF-β1 driven COL1A1 expression / ECM depositions” value in the data set with COL1A1 [4] was “effectively reduced TGF-β1 driven COL1A1 expression”.
For the compound `CO[C@H]1C[C@@H]2CC[C@@H](C)[C@@](O)(O2)C(=O)C(=O)N2CCCC[C@H]2C(=O)O[C@H]([C@H](C)C[C@@H]2CC[C@@H](O)[C@H](OC)C2)CC(=O)[C@H](C)/C=C(\C)[C@@H](O)[C@@H](OC)C(=O)[C@H](C)C[C@H](C)/C=C/C=C/C=C/1C` [Sirolimus], the IC50 at 96 h in data set [1] was 3.54 ± 0.2 µM. In addition, in data set [2], the IC50 was 5.01 ± 0.4 µM. Further, the “safe dosages preserving average beating rates compared to untreated organoids (from ... downwards)” value in the data set with hHO spontaneous beating is at most 2.5 µM. Moreover, the COL1A1 protein expression entry with COL1A1 [3] is reported as “independent effect in reducing COL1A1 protein expression”. In addition, the “inhibition of mTORC1 downstream targets p4E-BP1 and pS6K” value in data set [5] is “inhibit the mTORC1 downstream targets p4E-BP1 and pS6K”. Moreover, the “TGF-β1 driven COL1A1 expression / ECM depositions” value in the data set with COL1A1 [4] is given as “this phenotype is lost in heart organoids”. Also, in the data set on IL-11 and phospho-p38, the “levels of IL-11 and phospho-p38” value was “rescued levels of IL-11 and phospho-p38”.
For `C=CC[C@@H]1/C=C(\C)C[C@H](C)C[C@H](OC)[C@H]2O[C@@](O)(C(=O)C(=O)N3CCCC[C@H]3C(=O)O[C@H](/C(C)=C/[C@@H]3CC[C@@H](O)[C@H](OC)C3)[C@H](C)[C@@H](O)CC1=O)[C@H](C)C[C@@H]2OC` [Tacrolimus], in data set [1], the IC50 at 96 h worked out at 12.6 µM. In addition, the IC50 in data set [2] was found to be 19.9 µM. Further, the “safe dosages preserving average beating rates compared to untreated organoids (from ... downwards)” value in the data set with hHO spontaneous beating was at most 12 µM. Besides, the COL1A1 protein expression entry in the data set with COL1A1 [3] is listed as “no effect”. Further, the “COL1A1 levels in TGF-β1 unstimulated condition” value in the data set on COL1A1 [3] (unstimulated, western blot) is “mildly increase COL1A1 levels”.

As usually defined, the IC50 is the concentration that gives 50% inhibition.

The values are drawn from publication PMC9692097, “Immunosuppressants Tacrolimus and Sirolimus revert the cardiac antifibrotic properties of p38-MAPK inhibition in 3D-multicellular human iPSC-heart organoids” (Frontiers in Cell and Developmental Biology, 2022).
